# Reference: patent US11452758B2, “Antimicrobial peptide derived from LL37 peptide and uses thereof” (INDUSTRY-ACADEMIC COOPERATION FOUNDATION, CHOSUN UNIVERSITY, priority 2018, dated 2022)
# Read-outs that look alike come from different tables or passages of the source. Where a SMILES comes first, the peptide text is derived from it.
# What was measured:
# [1] = tested on: S. typhimurium KCTC 1925; assay type: cell-based, Salmonella typhimurium
# From the text: To compare the antimicrobial activity among the peptides produced by the method of Example 1, the inventors of the present invention measured the minimal growth inhibitory concentration (MIC), which is minimum concentration of the peptide not allowing any […] of bacterial cells.
# Specifically, the bacterial strains described in the following Table 2 were purchased and cultured to a mid-log phase in MHB (Mueller Hinton Broth) medium. Then, after dilution to bacterial cell concentration of 2×10^5 cells/50 μl, the cells were inoculated to a microtiter plate (NUNC, USA). Thereafter, LL37-1, LL37-2, LL37-3 or LL37-4 peptide which has been synthesized in Example 1 above was subjected to serial dilution, ½ times for each, in a 96-well plate. After adding the peptides in an amount of 50 μl to the cell plate, the cells were cultured for 18 hours at 37° C. By using a microtiter plate reader (Merck Elisa reader, Germany), the absorbance was measured at a wavelength of 600 nm to determine the MIC value of each bacterial strain. As a control group, LL37 as a mother peptide was used and subjected to the same process as above to determine the MIC value of each strain.
# [2] = Cytotoxicity in normal cell line (MTT); assay type: cell-based, human; details: human
# Method: To determine the cytotoxicity of the peptides produced by the method of Example 1 in normal cell line, cytotoxicity was measured by using normal human keratinocyte cell line (HaCaT) and normal human fibroblast cell line (Hs27).
# Specifically, normal human keratinocyte (HaCaT) cells and normal human fibroblast (Hs27) cells, which have been cultured in DMEM medium containing 10% FBS (fetal bovine serum), were aliquoted in a microtiter plate to have 1×10^4 cells per well. After culturing them for 24 hours, the cells were subjected to a treatment with LL37, LL37-1, LL37-2, LL37-3 or LL37-4 peptide, each at concentration of 0.5, 1, 2, 4, 8, 16 or 32 μM/well, followed by reaction for 24 hours in a 5% CO2 incubator. After culture, a reaction solution containing 5 mg/ml MTT (Thiazolyl Blue Tetrazolium Bromide) dissolved in phosphate buffered saline (PBS) was added in an amount of 10 μl to each well and the reaction was allowed to occur for 1 hour. After that, the supernatant was discarded, and, by dissolving MTT crystals that are formed by adding 200 μl DMSO (dimethyl sulfoxide), the absorbance at 570 nm was measured to determine the cell survival ability.
# [3] = tested on: Human macrophage cells (U937) infected with Acinetobacter baumannii KCTC 2508; assay: Expression of inflammatory cytokines, Western blot and real time RT-PCR; assay type: cell-based; details: U937 infected with A. baumannii KCTC 2508, peptide added 1 hour after infection, sample after 9 hours
# Method: To see whether or not a change in expression of inflammatory cytokines in macrophage is caused by the peptides that are prepared by the method of above Example 1, determination was made by Western blot and real time reverse transcription polymerase chain reaction.
# Specifically, Acinetobacter baumannii KCTC 2508 cells were cultured to a mid-log phase in MHB medium, and then diluted to a cell concentration of 1×10^7 cells/ml in physiological saline. Human macrophage cells (U937) were then infected with the resulting cells in time-dependent manner to yield the first sample, and another macrophage cells were infected with Acinetobacter baumannii KCTC 2508 cells, which have been diluted to a concentration of 1×10^7 cells, and added with, 1 hour after the infection, mother peptide LL37 or the homologous peptide to collect the second sample after 9 hours. Both collected samples were treated with cell lysis buffer to obtain the supernatant (sup) and pellet (lysate). Thereafter, by Western blot and real time reverse transcription polymerase chain reaction, a change in the expression level of inflammatory cytokines was examined.
# [4] = tested on: Acinetobacter baumannii KCTC 2508; assay: Flow cytometry after PI staining (bacteria membrane); assay type: cell-based; details: peptide at concentration of MIC, 30 minutes at 37° C.
# Method: To determine whether or not the peptides prepared by the method of Example 1 have any effect on bacteria membrane, an analysis was made by flow cytometry.
# After that, the supernatant was removed by centrifuge (10,000 rpm) and stained with propidium iodide (PI, concentration of 10 μg/ml) for 30 minutes at 4° C. Thereafter, unbound propidium iodide was removed by centrifuge, and the problem of cell aggregation phenomenon was solved by adding physiological saline (PBS) in an amount of 1 ml.
# [5] = tested on: Acinetobacter baumannii KCTC 2508; assay type: cell-based
# Method: To determine the activity of the peptides, which have been prepared by the method of Example 1, in the presence of trypsin as one type of proteases, peptide stability against protease was determined by radial diffusion assay.
# Specifically, among the bacterial strains that are described in the above Table 2, Acinetobacter baumannii KCTC 2508 cells were cultured to a mid-log phase in MHB medium, and, after diluting the cells to a cell concentration of 2×10^5 cells/10 ml, the cells were admixed with agarose which has been adjusted to final concentration of 1% and then evenly spread and solidified on a Petri dish. After that, the peptide adjusted to a concentration of 100 μg/ml was admixed with 10.7 nM trypsin and reacted for 10 minutes at 37° C. After applying a paper disk (diameter: 6 mm) on the solidified Petri dish, the peptide obtained after the reaction with trypsin was aliquoted thereto in an amount of 25 μl. After culture for 18 hours at 37° C., diameter of the clear zone around the paper disk was measured so that the level of antimicrobial activity for Acinetobacter baumannii KCTC 2508 was determined.
smiles,measurement,setting,value
"CC[C@H](C)[C@H](NC(=O)[C@H](CCCNC(=N)N)NC(=O)[C@H](CCC(N)=O)NC(=O)[C@@H](NC(=O)[C@@H](NC(=O)[C@H](CCCNC(=N)N)NC(=O)[C@H](CCCCN)NC(=O)[C@H](Cc1ccccc1)NC(=O)[C@H](CCCCN)NC(=O)[C@@H](N)CCCCN)[C@@H](C)CC)C(C)C)C(=O)N[C@@H](CCCCN)C(=O)N[C@@H](CC(=O)O)C(=O)N[C@@H](Cc1ccccc1)C(=O)N[C@@H](CC(C)C)C(=O)N[C@@H](CCCNC(=N)N)C(=O)N[C@@H](CC(N)=O)C(N)=O [LL37-2, KKFKRIVQRIKDFLRN-NH2] (H-KKFKRIVQRIKDFLRN-NH2)",Minimal inhibitory concentration,"[1]; S. typhimurium KCTC 1925, MHB, 18 hours at 37° C.",4 µM
same,"viability at 24 h, 0.5 µM","[2]; HaCaT keratinocyte cells, HaCaT, peptide 0.5 μM, 24 hours, MTT, read-out: Cell survival ability",100%
same,"viability at 24 h, 1 µM","[2]; HaCaT keratinocyte cells, HaCaT, peptide 1 μM, 24 hours, MTT, read-out: Cell survival ability",106%
same,"viability at 24 h, 2 µM","[2]; HaCaT keratinocyte cells, HaCaT, peptide 2 μM, 24 hours, MTT, read-out: Cell survival ability",104%
same,"viability at 24 h, 4 µM","[2]; HaCaT keratinocyte cells, HaCaT, peptide 4 μM, 24 hours, MTT, read-out: Cell survival ability",102%
same,"viability at 24 h, 8 µM","[2]; HaCaT keratinocyte cells, HaCaT, peptide 8 μM, 24 hours, MTT, read-out: Cell survival ability",101%
same,"viability at 24 h, 16 µM","[2]; HaCaT keratinocyte cells, HaCaT, peptide 16 μM, 24 hours, MTT, read-out: Cell survival ability",107%
same,"viability at 24 h, 32 µM","[2]; HaCaT keratinocyte cells, HaCaT, peptide 32 μM, 24 hours, MTT, read-out: Cell survival ability",107%
same,"viability at 24 h, 0.5 µM","[2]; Hs27 fibroblast cells, Hs27, peptide 0.5 μM, 24 hours, MTT, read-out: Cell survival ability",92%
same,"viability at 24 h, 1 µM","[2]; Hs27 fibroblast cells, Hs27, peptide 1 μM, 24 hours, MTT, read-out: Cell survival ability",92%
same,"viability at 24 h, 2 µM","[2]; Hs27 fibroblast cells, Hs27, peptide 2 μM, 24 hours, MTT, read-out: Cell survival ability",94%
same,"viability at 24 h, 4 µM","[2]; Hs27 fibroblast cells, Hs27, peptide 4 μM, 24 hours, MTT, read-out: Cell survival ability",91%
same,"viability at 24 h, 8 µM","[2]; Hs27 fibroblast cells, Hs27, peptide 8 μM, 24 hours, MTT, read-out: Cell survival ability",89%
same,"viability at 24 h, 16 µM","[2]; Hs27 fibroblast cells, Hs27, peptide 16 μM, 24 hours, MTT, read-out: Cell survival ability",93%
same,"viability at 24 h, 32 µM","[2]; Hs27 fibroblast cells, Hs27, peptide 32 μM, 24 hours, MTT, read-out: Cell survival ability",97%
"CC[C@H](C)[C@H](NC(=O)[C@H](CCCNC(=N)N)NC(=O)[C@H](CCC(N)=O)NC(=O)[C@@H](NC(=O)[C@@H](NC(=O)[C@H](CCCNC(=N)N)NC(=O)[C@H](CCCCN)NC(=O)[C@H](Cc1ccccc1)NC(=O)[C@H](CCC(=O)O)NC(=O)[C@@H](N)CCCCN)[C@@H](C)CC)C(C)C)C(=O)N[C@@H](CCCCN)C(=O)N[C@@H](CCCCN)C(=O)N[C@@H](Cc1ccccc1)C(=O)N[C@@H](CC(C)C)C(=O)N[C@@H](CCCNC(=N)N)C(=O)N[C@@H](CC(N)=O)C(N)=O [LL37-3, KEFKRIVQRIKKFLRN-NH2] (H-KEFKRIVQRIKKFLRN-NH2; N-terminus assumed)",Minimal inhibitory concentration,"[1]; KCTC 1925, 18 h",8 µM
same,expression level of HMGB-1 and late cytokine (IL-1b and TNF-α),[3],increase in expression level of HMGB-1 and late cytokine is lower
same,"effect on bacteria membrane (PI fluorescence, flow cytometry)",[4],bacteria membrane was damaged
same,"viability at 24 h, 0.5 µM",[2]; HaCaT keratinocyte cells,96%
same,"viability at 24 h, 1 µM",[2]; HaCaT keratinocyte cells,100%
same,"viability at 24 h, 2 µM",[2]; HaCaT keratinocyte cells,101%
same,"viability at 24 h, 4 µM",[2]; HaCaT keratinocyte cells,98%
same,"viability at 24 h, 8 µM",[2]; HaCaT keratinocyte cells,98%
same,"viability at 24 h, 16 µM",[2]; HaCaT keratinocyte cells,104%
same,"viability at 24 h, 32 µM",[2]; HaCaT keratinocyte cells,104%
same,"viability at 24 h, 0.5 µM",[2]; Hs27 fibroblast cells,94%
same,"viability at 24 h, 1 µM",[2]; Hs27 fibroblast cells,92%
same,"viability at 24 h, 2 µM",[2]; Hs27 fibroblast cells,93%
same,"viability at 24 h, 4 µM",[2]; Hs27 fibroblast cells,90%
same,"viability at 24 h, 8 µM",[2]; Hs27 fibroblast cells,91%
same,"viability at 24 h, 16 µM",[2]; Hs27 fibroblast cells,93%
same,"viability at 24 h, 32 µM",[2]; Hs27 fibroblast cells,95%
"CC[C@H](C)[C@H](NC(=O)[C@H](CCCNC(=N)N)NC(=O)[C@H](CCC(N)=O)NC(=O)[C@@H](NC(=O)[C@@H](NC(=O)[C@H](CCCNC(=N)N)NC(=O)[C@H](CCCCN)NC(=O)[C@H](Cc1ccccc1)NC(=O)[C@H](CCCCN)NC(=O)[C@@H](N)CCCCN)[C@@H](C)CC)C(C)C)C(=O)N[C@@H](CCCCN)C(=O)N[C@@H](CCCCN)C(=O)N[C@@H](Cc1ccccc1)C(=O)N[C@@H](CC(C)C)C(=O)N[C@@H](CCCNC(=N)N)C(=O)N[C@@H](CC(N)=O)C(N)=O [LL37-4, KKFKRIVQRIKKFLRN-NH2] (H-KKFKRIVQRIKKFLRN-NH2; N-terminus assumed)",decrease in clear zone compared to no treatment with trypsin,"[5]; KCTC 2508, 18 h",1.75 mm
same,antimicrobial activity after reaction with trypsin,"[5]; peptide 100 μg/ml with 10.7 nM trypsin, 10 minutes at 37° C., A. baumannii KCTC 2508",showed the antimicrobial activity
same,Minimal inhibitory concentration,"[1]; KCTC 1925, 18 h",4 µM
same,expression level of HMGB-1 and late cytokine (IL-1b and TNF-α),[3],increase in expression level of HMGB-1 and late cytokine is lower
same,"effect on bacteria membrane (PI fluorescence, flow cytometry)",[4],bacteria membrane was damaged
same,"viability at 24 h, 0.5 µM",[2]; HaCaT keratinocyte cells,100%
same,"viability at 24 h, 1 µM",[2]; HaCaT keratinocyte cells,103%
same,"viability at 24 h, 2 µM",[2]; HaCaT keratinocyte cells,97%
same,"viability at 24 h, 4 µM",[2]; HaCaT keratinocyte cells,96%
same,"viability at 24 h, 8 µM",[2]; HaCaT keratinocyte cells,92%
same,"viability at 24 h, 16 µM",[2]; HaCaT keratinocyte cells,94%
same,"viability at 24 h, 32 µM",[2]; HaCaT keratinocyte cells,101%
same,"viability at 24 h, 0.5 µM",[2]; Hs27 fibroblast cells,94%
same,"viability at 24 h, 1 µM",[2]; Hs27 fibroblast cells,94%
same,"viability at 24 h, 2 µM",[2]; Hs27 fibroblast cells,97%
same,"viability at 24 h, 4 µM",[2]; Hs27 fibroblast cells,90%
same,"viability at 24 h, 8 µM",[2]; Hs27 fibroblast cells,93%
same,"viability at 24 h, 16 µM",[2]; Hs27 fibroblast cells,96%
same,"viability at 24 h, 32 µM",[2]; Hs27 fibroblast cells,93%
